Measured values reported in patent publication US9044527B2, “Wound care products with peracid compositions” (CHD Bioscience, Inc., priority 2011, dated 2015).

Key:
[1] = tested on: methicillin resistant staphylococcus aureus (MRSA); assay: MRSA streaked blood agar plate treated with PPA film discs (simulated MIC test); assay type: cell-based; conditions: 6 mm film discs made with 100 ppm and 1000 ppm PPA compound, incubated overnight
Source text: This bulk film material illustrated in the drawings can be easily fit between layers of dressing or gauze and protected from the moisture in the bandage. […] To test efficacy and stability of the incorporated PPA compound, six millimeter discs were cut out of the PPA treated matrices and placed onto a methicillin resistant staphylococcus aureus (MRSA) streaked blood agar plate. […] This method simulated the well-known minimum inhibitory concentration (MIC) test. The blood agar plates were incubated overnight at optimal temperature and then observed for microbial kill.
The control film disc was the diameter of the grown of the 1000 ppm disc. The discs were placed on the blood agar plate and were dissolved by the moisture from the agar which allowed the PPA compound to migrate out of the film. […] Thus the 1000 ppm ratio of ppm concentration to the circle of kill diameter was greater than for the 100 ppm concentration to the circle diameter in millimeters.

e. coli 25922 [2] = conditions: 10 μg gentamicin disc, 6 mm; cited from earlier work
e. coli 25922 [3] = assay: Kirby-Bauer growth inhibition (disk diffusion) assay; assay type: cell-based; conditions: 10 μg gentamicin disc, 6 mm, 16-18 hours
Experimental: Kirby-Bauer growth inhibition (or disk diffusion susceptibility testing) is used to quantify the efficiency of antibiotics and/or to test the sensitivity of particular rapidly growing bacteria to an antibiotic.
A bacterial inoculum was prepared from log-phase cultures (ATCC e. coli 25922) to a standard density (approximately 1×10^8 CFU/ml, which is equivalent to a 0.5 McFarland turbidity). The inoculum was applied to a culture dish with Muller-Hinton nutrient agar.
Dissolvable thin film biocide preparations were prepared as Examples 1 or 3, but the spiked biocide was used at an original film-pour concentration of 20,000 ppm (recall that when the film-pour dries, it loses approximately 16-25× of its weight through solvent evaporation, and thus the final concentration of the biocide is much higher than the film-pour, although some is lost through evaporation as evidenced by the acetic acid smell during dry-down).
Samples of hydrogel (single FT cycle) were also used in some experiments where spiked biocide films were applied to the hydrogel surface and the bi-layer sample applied to the culture surface.
At the time of infection, test materials are applied to the surface of the agar. After a growth a 35-37° C. in air, for period of 16-18 hours, the diameter of the zone of inhibited bacteria growth can be visualized and measured with calipers. […]

| Compound | kill of MRSA (circle of kill diameter) [1] | zone inhibition diameter, published quality-control data (e. coli 25922 [2]) | control zone inhibition diameter (e. coli 25922 [3]) |
| --- | --- | --- | --- |
| CC(=O)C(=O)OO [PPA compound, peroxy pyruvic acid] | in proportion to the PPA concentration in the disc | – | – |
| gentamicin [Sensi-Disc] | – | 19-26 mm | agrees with published quality-control data |
